Assay results taken from patent publication US8192962B2, “Processes for detecting toxic substances” (Daikin Industries, Ltd., priority 2001, dated 2012).

Tested on: Stress protein genes
Assay: DNA chip mRNA expression in yeast, stress protein genes (Table 6)
Format: cell-based, Saccharomyces cerevisiae S288C
How it was run: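 Chemical exposure: 2 h, log-phase S. cerevisiae S288C, YPD, 25° C., dose set to inhibit growth without death. Profiling: mRNA labeled by reverse transcription with Cy3- or Cy5-dUTP, hybridized to whole-genome array. Output: fluorescence ratio against untreated culture.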

C[S+](C)[O-] [(15), dimethylsulfoxide]
The level of expressed mRNA in the presence of chemical substance/The level of expressed mRNA in the absence of chemical substance (yeast gene YAL015C): 0.7
The level of expressed mRNA in the presence of chemical substance/The level of expressed mRNA in the absence of chemical substance (yeast gene YBR044C): 0.9
The level of expressed mRNA in the presence of chemical substance/The level of expressed mRNA in the absence of chemical substance (yeast gene YBR054W): 0.6
The level of expressed mRNA in the presence of chemical substance/The level of expressed mRNA in the absence of chemical substance (yeast gene YBR067C): 3.3
The level of expressed mRNA in the presence of chemical substance/The level of expressed mRNA in the absence of chemical substance (yeast gene YBR072W): 4.9
The level of expressed mRNA in the presence of chemical substance/The level of expressed mRNA in the absence of chemical substance (yeast gene YBR126C): 1.0
The level of expressed mRNA in the presence of chemical substance/The level of expressed mRNA in the absence of chemical substance (yeast gene YBR169C): 1.6
The level of expressed mRNA in the presence of chemical substance/The level of expressed mRNA in the absence of chemical substance (yeast gene YCR083W): 1.0
The level of expressed mRNA in the presence of chemical substance/The level of expressed mRNA in the absence of chemical substance (yeast gene YDL022W): 0.9
The level of expressed mRNA in the presence of chemical substance/The level of expressed mRNA in the absence of chemical substance (yeast gene YDL025C): 1.0
The level of expressed mRNA in the presence of chemical substance/The level of expressed mRNA in the absence of chemical substance (yeast gene YDR033W): 0.8
The level of expressed mRNA in the presence of chemical substance/The level of expressed mRNA in the absence of chemical substance (yeast gene YDR077W): 6.1
The level of expressed mRNA in the presence of chemical substance/The level of expressed mRNA in the absence of chemical substance (yeast gene YDR098C): 2.2
The level of expressed mRNA in the presence of chemical substance/The level of expressed mRNA in the absence of chemical substance (yeast gene YDR155C): 2.5
The level of expressed mRNA in the presence of chemical substance/The level of expressed mRNA in the absence of chemical substance (yeast gene YDR258C): 0.6
The level of expressed mRNA in the presence of chemical substance/The level of expressed mRNA in the absence of chemical substance (yeast gene YDR293C): 1.7
The level of expressed mRNA in the presence of chemical substance/The level of expressed mRNA in the absence of chemical substance (yeast gene YDR436W): 0.8
The level of expressed mRNA in the presence of chemical substance/The level of expressed mRNA in the absence of chemical substance (yeast gene YDR513W): 1.3
The level of expressed mRNA in the presence of chemical substance/The level of expressed mRNA in the absence of chemical substance (yeast gene YDR519W): 2.0
The level of expressed mRNA in the presence of chemical substance/The level of expressed mRNA in the absence of chemical substance (yeast gene YEL030W): 0.8
The level of expressed mRNA in the presence of chemical substance/The level of expressed mRNA in the absence of chemical substance (yeast gene YEL039C): 0.4
The level of expressed mRNA in the presence of chemical substance/The level of expressed mRNA in the absence of chemical substance (yeast gene YER042W): 1.0
The level of expressed mRNA in the presence of chemical substance/The level of expressed mRNA in the absence of chemical substance (yeast gene YER057C): 1.7
The level of expressed mRNA in the presence of chemical substance/The level of expressed mRNA in the absence of chemical substance (yeast gene YER125W): 0.8
The level of expressed mRNA in the presence of chemical substance/The level of expressed mRNA in the absence of chemical substance (yeast gene YFL014W): 6.3
The level of expressed mRNA in the presence of chemical substance/The level of expressed mRNA in the absence of chemical substance (yeast gene YFL016C): 0.8
The level of expressed mRNA in the presence of chemical substance/The level of expressed mRNA in the absence of chemical substance (yeast gene YFL020C): 1.4
The level of expressed mRNA in the presence of chemical substance/The level of expressed mRNA in the absence of chemical substance (yeast gene YFR052W): 1.4
The level of expressed mRNA in the presence of chemical substance/The level of expressed mRNA in the absence of chemical substance (yeast gene YGL073W): 0.9
The level of expressed mRNA in the presence of chemical substance/The level of expressed mRNA in the absence of chemical substance (yeast gene YGL115W): 0.7
The level of expressed mRNA in the presence of chemical substance/The level of expressed mRNA in the absence of chemical substance (yeast gene YGL181W): 1.5
The level of expressed mRNA in the presence of chemical substance/The level of expressed mRNA in the absence of chemical substance (yeast gene YGR088W): 0.7
The level of expressed mRNA in the presence of chemical substance/The level of expressed mRNA in the absence of chemical substance (yeast gene YHL028W): 0.6
The level of expressed mRNA in the presence of chemical substance/The level of expressed mRNA in the absence of chemical substance (yeast gene YHL046C): 1.0
The level of expressed mRNA in the presence of chemical substance/The level of expressed mRNA in the absence of chemical substance (yeast gene YHR057C): 1.2
The level of expressed mRNA in the presence of chemical substance/The level of expressed mRNA in the absence of chemical substance (yeast gene YHR104W): 1.6
The level of expressed mRNA in the presence of chemical substance/The level of expressed mRNA in the absence of chemical substance (yeast gene YIL011W): 0.9
The level of expressed mRNA in the presence of chemical substance/The level of expressed mRNA in the absence of chemical substance (yeast gene YIL033C): 1.0
The level of expressed mRNA in the presence of chemical substance/The level of expressed mRNA in the absence of chemical substance (yeast gene YIR037W): 1.0
The level of expressed mRNA in the presence of chemical substance/The level of expressed mRNA in the absence of chemical substance (yeast gene YIR038C): 1.2
The level of expressed mRNA in the presence of chemical substance/The level of expressed mRNA in the absence of chemical substance (yeast gene YJL128C): 1.2
The level of expressed mRNA in the presence of chemical substance/The level of expressed mRNA in the absence of chemical substance (yeast gene YJL158C): 1.7
The level of expressed mRNA in the presence of chemical substance/The level of expressed mRNA in the absence of chemical substance (yeast gene YJL165C): 1.0
The level of expressed mRNA in the presence of chemical substance/The level of expressed mRNA in the absence of chemical substance (yeast gene YJR045C): 2.3
The level of expressed mRNA in the presence of chemical substance/The level of expressed mRNA in the absence of chemical substance (yeast gene YJR090C): 1.6
The level of expressed mRNA in the presence of chemical substance/The level of expressed mRNA in the absence of chemical substance (yeast gene YKL161C): 1.3
The level of expressed mRNA in the presence of chemical substance/The level of expressed mRNA in the absence of chemical substance (yeast gene YKL164C): 1.2
The level of expressed mRNA in the presence of chemical substance/The level of expressed mRNA in the absence of chemical substance (yeast gene YKL210W): 1.0
The level of expressed mRNA in the presence of chemical substance/The level of expressed mRNA in the absence of chemical substance (yeast gene YKR053C): 0.3
The level of expressed mRNA in the presence of chemical substance/The level of expressed mRNA in the absence of chemical substance (yeast gene YLL024C): 1.3
The level of expressed mRNA in the presence of chemical substance/The level of expressed mRNA in the absence of chemical substance (yeast gene YLL026W): 0.9
The level of expressed mRNA in the presence of chemical substance/The level of expressed mRNA in the absence of chemical substance (yeast gene YLL060C): 1.5
The level of expressed mRNA in the presence of chemical substance/The level of expressed mRNA in the absence of chemical substance (yeast gene YLR006C): 0.9
The level of expressed mRNA in the presence of chemical substance/The level of expressed mRNA in the absence of chemical substance (yeast gene YLR109W): 3.9
The level of expressed mRNA in the presence of chemical substance/The level of expressed mRNA in the absence of chemical substance (yeast gene YML007W): 1.0
The level of expressed mRNA in the presence of chemical substance/The level of expressed mRNA in the absence of chemical substance (yeast gene YML070W): 0.9
The level of expressed mRNA in the presence of chemical substance/The level of expressed mRNA in the absence of chemical substance (yeast gene YMR021C): 1.0
The level of expressed mRNA in the presence of chemical substance/The level of expressed mRNA in the absence of chemical substance (yeast gene YMR173W): 2.5
The level of expressed mRNA in the presence of chemical substance/The level of expressed mRNA in the absence of chemical substance (yeast gene YMR186W): 1.3
The level of expressed mRNA in the presence of chemical substance/The level of expressed mRNA in the absence of chemical substance (yeast gene YNL064C): 0.7
The level of expressed mRNA in the presence of chemical substance/The level of expressed mRNA in the absence of chemical substance (yeast gene YNL160W): 0.7
The level of expressed mRNA in the presence of chemical substance/The level of expressed mRNA in the absence of chemical substance (yeast gene YNR076W): 1.1
The level of expressed mRNA in the presence of chemical substance/The level of expressed mRNA in the absence of chemical substance (yeast gene YOL064C): 1.0
The level of expressed mRNA in the presence of chemical substance/The level of expressed mRNA in the absence of chemical substance (yeast gene YOL161C): 1.1
The level of expressed mRNA in the presence of chemical substance/The level of expressed mRNA in the absence of chemical substance (yeast gene YOR008C): 0.9
The level of expressed mRNA in the presence of chemical substance/The level of expressed mRNA in the absence of chemical substance (yeast gene YOR009W): 0.6
The level of expressed mRNA in the presence of chemical substance/The level of expressed mRNA in the absence of chemical substance (yeast gene YOR010C): 0.6
The level of expressed mRNA in the presence of chemical substance/The level of expressed mRNA in the absence of chemical substance (yeast gene YOR027W): 1.4
The level of expressed mRNA in the presence of chemical substance/The level of expressed mRNA in the absence of chemical substance (yeast gene YPL059W): 1.0
The level of expressed mRNA in the presence of chemical substance/The level of expressed mRNA in the absence of chemical substance (yeast gene YPL106C): 1.1
The level of expressed mRNA in the presence of chemical substance/The level of expressed mRNA in the absence of chemical substance (yeast gene YPL140C): 0.7
The level of expressed mRNA in the presence of chemical substance/The level of expressed mRNA in the absence of chemical substance (yeast gene YPL194W): 1.4
The level of expressed mRNA in the presence of chemical substance/The level of expressed mRNA in the absence of chemical substance (yeast gene YPL223C): 1.5
The level of expressed mRNA in the presence of chemical substance/The level of expressed mRNA in the absence of chemical substance (yeast gene YPL240C): 1.2
The level of expressed mRNA in the presence of chemical substance/The level of expressed mRNA in the absence of chemical substance (yeast gene YPR005C): 2.7
